US20200157135A1, “SIDE-CHAIN MODIFIED ERGOSTEROL AND STIGMASTEROL DERIVATIVES AS LIVER X RECEPTOR MODULATORS” (Ospedale San Raffaele srl, priority 2017, published 2020)

What was measured:
[1] = target: T1, hLXRα (Homo sapiens, UniProt Q13133); assay: luciferase assay with GAL-4 chimeric hLXRα receptor in human embryonic kidney 293 cells; format: cell-based; settings: for EC50: GAL4-hLXRα luciferase, HEK293, dose-response 32-1 μM, mean of three-five independent experiments, read-out: LXRα EC50 (μM) ± SD; for Emax: HEK293, 24 h, % of compound effect versus 8 μM of 22R-HC, read-out: LXRα Efficacy (%) ± SD
T1 sequence (Q13133 209-447 limits assumed): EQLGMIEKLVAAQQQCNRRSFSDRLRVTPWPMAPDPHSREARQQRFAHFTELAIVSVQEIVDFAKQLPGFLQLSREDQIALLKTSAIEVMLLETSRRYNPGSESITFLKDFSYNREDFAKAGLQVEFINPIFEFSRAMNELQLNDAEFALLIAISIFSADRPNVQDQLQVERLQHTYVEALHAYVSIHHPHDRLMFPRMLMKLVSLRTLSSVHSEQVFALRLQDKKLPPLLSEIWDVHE
Protocol: (§1) All the synthesized compounds were first tested for their ability to activate LXRs by using luciferase assays with GAL-4 chimeric receptors. These were performed by co-transfecting plasmids encoding hLXRα- and β-binding domains fused to GAL-4, with the respective responsive element conjugated with the luciferase reporter gene into the human embryonic kidney 293 cells.
(§2) Cell Culture and Co-transfection Assays. Human embryonic Kidney 293 cells (American Type Culture Collection) were cultured in Dulbecco's Modified Eagle's medium containing 10% of fetal bovine serum at 37° C. in humidified atmosphere of 5% CO2. HEK293 cells (4×10^4 cells per well) were transiently transfected in 48 well plate with the reporter plasmids pMH100X4-TK-luc (100 ng/well), Renilla (22 ng/well) together with 100 ng/well of pCMX-Gal4-RXR, pCMX-Gal4-PPAR-γ, pCMX-Gal4-PXR, pFA-CMV-FXR pCMX-Gal4-LXR-α or pCMX-Gal4-LXR-β plasmids using X-tremeGENE 9 DNA Transfection Reagent (Roche). Six hours after transfection, the cells were treated with the appropriate compound for 24 hours. Luciferase activities were analyzed by luciferase Dual Reporter Assay Systems (Promega) according to the manufacturer's protocol. GAL4-LXRs, GAL4-PPAR-γ, GAL4-RXR and TK-MHC100-luc plasmids were described in Villablanca et al.49 GAL4-PXR was a kind gift of Dr. Enrique Sainz (The Scripps Research Institute, La Jolla, USA). GAL4-FXR was a kind gift of Dr. Daniel Merk (Goethe-University Frankfurt am Main). The results obtained by luciferase assays and reported in Table 1 are from three to five independent experiments.
(§3) Statistical analysis. Data are expressed as mean±SEM and were analyzed for significance by ANOVA with Dunnet's multiple comparison tests. The analysis was performed with Prism software. Data in Table 1 are expressed as EC50±SD. In particular, the standard deviations were obtained by calculating the mean of the EC50 of each experiment (three to five independent experiments). The efficacy (%) of the compounds was calculated as the percentage of the compound effect, in terms of LXRα or β activation, versus 8 μM of 22R—HC±SD. The analyses were performed with Prism software.

[2] = target: T2, hLXRβ (Homo sapiens, UniProt P55055); assay: luciferase assay with GAL-4 chimeric hLXRβ receptor in human embryonic kidney 293 cells; format: cell-based; settings: for EC50: GAL4-hLXRβ luciferase, HEK293, dose-response 32-1 μM, mean of three-five independent experiments, read-out: LXRβ EC50 (μM) ± SD; for Emax: HEK293, 24 h, % of compound effect versus 8 μM of 22R-HC, read-out: LXRβ Efficacy (%) ± SD
T2 sequence (P55055 222-460 limits assumed): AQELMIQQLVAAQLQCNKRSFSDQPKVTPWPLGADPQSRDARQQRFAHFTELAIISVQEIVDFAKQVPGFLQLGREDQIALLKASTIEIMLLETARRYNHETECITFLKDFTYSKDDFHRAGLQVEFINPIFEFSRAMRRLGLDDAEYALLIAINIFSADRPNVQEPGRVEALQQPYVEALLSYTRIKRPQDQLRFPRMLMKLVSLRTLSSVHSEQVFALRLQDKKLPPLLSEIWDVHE
Protocol: as §1, §2, §3

[3] = system: hPXR; assay: luciferase assay GAL4-hPXR in human embryonic kidney 293 cells; format: cell-based; settings: compounds at 10 μM
Protocol: Human embryonic kidney 293 cells were co-transfected with GAL4-hRXR (A), GAL4-hPPARγ (B), GAL4-hPXR (C) and GAL4-hFXR (D) expression plasmids together with GAL4 responsive element pMHC100X4-TK-luc and Renilla plasmids. Cells were incubated with vehicle (DMSO), PFMs at the concentration of 10 μM, and the nuclear receptor specific ligands 9cis retinoic acid (100 nM) (A), Rosiglitazone (RSG 100 nM) (B), T0901317 (100 nM) (C) and GW4064 (100 nM) (D) for six hours. The values represent mean±S.D. RLA, relative luciferase activity.
The selectivity of our compounds within the nuclear receptor superfamily was also evaluated by luciferase assays using GAL4-RXR, -PPARγ, -PXR and -FXR plasmids.
as §2

[4] = system: SREBP1c; assay: qPCR of SREBP1c expression in HepG2 cells; format: cell-based, human; settings: 10 μM
Protocol: HepG2 cells were treated with T0901317 (10 μM), 22R—HC (3) (10 μM) or with the tested compound (10 μM). […] (n=3/group). *p<0.05, **p<0.01, ***p<0.001.
LXR agonists induce the expression of target genes, which are involved in cholesterol homeostasis, particularly in the reverse cholesterol transport pathway.43 Indeed, LXR agonists induce the expression of ABCA1 both in macrophages and in many tissues of the periphery such as the intestine.44 Moreover, ABCA1 regulates cholesterol efflux to APOAI acceptors.45 In the liver, LXR activation promotes the biosynthesis of fatty acids, a process also termed as de novo lipogenesis by inducing the expression of the master regulator of hepatic lipogenesis sterol-regulatory element-binding protein 1C (SREBP-1c), as well as several downstream genes in the SREBP-1c pathway, including steroyl CoA desaturase 1 (SCD1) and fatty acid synthase (FASN).43 Therefore, it was investigated, by quantitative PCR (qPCR), the expression of ABCA1, SREBP1c, FASN, and SCD1, by using RNA from monocytic U937 cells (FIG. 3) and from hepatic HepG2 cells (FIG. 4) stimulated with our compounds, the non-steroidal agonist T0901317 or the endogenous ligand 22R—HC (3) as positive controls. […] 43,22 was evaluated. […]
Quantitative Real-Time-PCR. […] The comparative Ct method was used to quantify transcripts that were normalized for human GAPDH. the following primer pairs were used: […]

[5] = system: MCP-1/CCL2; assay: qPCR of CCL2 expression in differentiated U937 cells treated with LPS; format: cell-based, human; settings: differentiated U937, 6 hours, 10 μM in combination with LPS (100 ng/ml)
Protocol: (§4) U937 cells differentiated with PMA for 72 hours were treated with LPS (100 ng/ml) in combination with T0901317 (10 μM) or with the title compounds (10 μM). […] (n=3/group). *p<0.05, **p<0.01, ***p<0.001.
(§5) Quantitative Real-Time-PCR. U937 cell line was differentiated in foam macrophages with phorbol 12-myristate 13-acetate (PMA) 10 ng/ml (Sigma) for 72 hours at 37° C. in […] at the concentration of 3×10^6 cells in 10 ml RPMI 10% FBS. At day 3 nuclear receptor ligands were added for 6 hours. HepG2 cells were treated with the ligands as described by Quinet et al.22 Total RNA was purified by TRIZOL (Invitrogen, Carlsbad, Calif., USA). Reverse transcription was performed incubating 2 μg of total RNA 1 hour at 42° C. with MLV-reverse transcriptase (Promega). Quantitative PCR was performed using Sybr Green Master Mix (Applied Biosystems) and real-time PCR (Viia 7 Real Time PCR System, Applied Biosystems). All PCR reactions were done in triplicate. The comparative Ct method was used to quantify transcripts that were normalized for human GAPDH. the following primer pairs were used: […]

[6] = system: ABCA1; assay: qPCR of ABCA1 expression in PMA-differentiated U937 cells; format: cell-based, human; settings: U937 differentiated with PMA 72 h; 10 μM, 6 hours
Protocol: (§6) U937 cells differentiated with PMA for 72 hours were treated with T0901317 (10 μM), 22R—HC (3) or with the tested compound (10 μM). […] (n=3/group). *p<0.05, **p<0.01, ***p<0.001.
(§7) LXR agonists induce the expression of target genes, which are involved in cholesterol homeostasis, particularly in the reverse cholesterol transport pathway.43 Indeed, LXR agonists induce the expression of ABCA1 both in macrophages and in many tissues of the periphery such as the intestine.44 Moreover, ABCA1 regulates cholesterol efflux to APOAI acceptors.45 In the liver, LXR activation promotes the biosynthesis of fatty acids, a process also termed as de novo lipogenesis by inducing the expression of the master regulator of hepatic lipogenesis sterol-regulatory element-binding protein 1C (SREBP-1c), as well as several downstream genes in the SREBP-1c pathway, including steroyl CoA desaturase 1 (SCD1) and fatty acid synthase (FASN).43 Therefore, it was investigated, by quantitative PCR (qPCR), the expression of ABCA1, SREBP1c, FASN, and SCD1, by using RNA from monocytic U937 cells (FIG. 3) and from hepatic HepG2 cells (FIG. 4) stimulated with our compounds, the non-steroidal agonist T0901317 or the endogenous ligand 22R—HC (3) as positive controls. […] Then, the induction of genes involved in the lipogenesis using the hepatic cell line HepG2. 43,22 was evaluated. […] Over the time, indeed, substantial efforts have been dedicated to the identification of LXR ligands able to turning on ABC transporter genes, without affecting lipogenic genes levels. This task is still one of the major challenge to the discovery of a clinically useful LXR modulator for atherosclerosis.
as §5

[7] = system: SREBP1c; assay: qPCR of SREBP1c expression in PMA-differentiated U937 cells; format: cell-based, human; settings: U937 differentiated with PMA 72 h; 10 μM, 6 hours
Protocol: as §6, §7, §5

[8] = system: SCD1; assay: qPCR of SCD1 expression in PMA-differentiated U937 cells; format: cell-based, human; settings: U937 differentiated with PMA 72 h; 10 μM, 6 hours
Protocol: as §6, §7, §5

[9] = system: TNFα; assay: qPCR of TNFα expression in differentiated U937 cells treated with LPS; format: cell-based, human; settings: differentiated U937, 6 hours, 10 μM in combination with LPS (100 ng/ml)
Protocol: as §4, §5

`CC(C)[C@@H](C)[C@H]1O[C@@H]1[C@@H](C)[C@H]1CC[C@H]2C3=CC=C4C[C@@H](O)CC[C@]4(C)[C@H]3CC[C@]12C` [Compound 15, (22R,23R)-22,23-Epoxyergosta-5,7-diene-3β-ol] showed an EC50 [1] of 4.11 ± 0.31 µM, an Emax [1] of 93.2 ± 5.8% and an EC50 [2] of 7.2 ± 0.94 µM. The Emax [2] was 30.4 ± 10.6% and the PXR activation [3] was “slight activation of PXR”.

For `CC(C)[C@@H](C)[C@@H]1O[C@H]1[C@@H](C)[C@H]1CC[C@H]2C3=CC=C4C[C@@H](O)CC[C@]4(C)[C@H]3CC[C@]12C` [Compound 16, (22S,23S)-22,23-Epoxyergosta-5,7-diene-3β-ol], the EC50 [1] was 1.5 ± 0.12 µM, the Emax [1] was 51.7 ± 3.8% and the “LXR isoform selectivity profile” value ([1]; LXRα versus LXRβ, GAL4 luciferase assays) was “non-selective and poorly preferential LXRα agonists”. The EC50 [2] was 1.96 ± 0.05 µM, the Emax [2] was 48.5 ± 13% and the SREBP-1c up-regulation [4] was “significant up-regulation of SREBP-1c”. The “inhibition of CCL2 expression” value [5] was “same grade of potency of the positive control T0901317”.

With `CC[C@@H](C(C)C)[C@H](O)C[C@@H](C)[C@H]1CC[C@H]2[C@@H]3CC=C4C[C@@H](O)CC[C@]4(C)[C@H]3CC[C@]12C` [Compound 19, (23R)-3β-Stigmast-5-ene-3,23-diol] the EC50 [1] was 3.2 ± 0.54 µM, the EC50 [2] was 2.7 ± 1.16 µM and the ABCA1 expression [6] was “strong induction of ABCA1 expression”. The SREBP-1c up-regulation [7] was “poor activators of SREBP1c and SCD1”, the “SCD1 expression” value [8] was “poor activators of SREBP1c and SCD1” and the “inhibition of CCL2 expression” value [5] was “same grade of potency of the positive control T0901317”. The “inhibition of TNFα expression” value [9] was “the most active”.
